# Assay results published in patent publication US11752169B2, “Treatment of pain with polysulfated polysaccharides” (PARADIGM BIOPHARMACEUTICALS LTD., priority 2018, dated 2023).
# Legend:
# proNGF = proNGF ELISA of culture supernatants of osteocyte-like cultures treated with rhTNF and PPS; assay type: cell-based, human
# Text: In order to maximise the clinical relevance of the findings from this study, the effects of PPS were to be tested on osteocyte-like cultures derived by differentiation in vitro for a period of 28 days from cells isolated from the subchondral bone of the proximal tibia of three patients with advanced knee OA who underwent total knee arthroplasty (TKA) surgery (KOA: Group 1). As a comparator group, cells isolated from the proximal femur of three patients who underwent total hip arthroplasty (THA) for neck of femur fracture (NOF: Group 2), were similarly differentiated and tested. […]
# (§1) Cryopreserved cells from each donor (all at passage 0 or 1) were thawed and cultured for 10d in T75 cm^2 tissue culture flasks. Once confluent, cells were removed by collagenase/dispase digestion, washed by centrifugation, counted and adjusted to 5×10^5 cells/mL. […]
# To examine further the effects of PPS on NGF expression, osteocyte-like cultures derived from three KOA and three NOF donor osteoblasts were treated after 3 days pre-treatment with differing concentrations of PPS, with rhTNFα in the absence or presence of the pre-treatment concentration of PPS. […] Therefore, in this study proNGF levels were also measured in the treated supernatants, as described in Materials and Methods.
# MMP13 mRNA = assay: real-time RT-PCR for MMP13 mRNA in KOA osteocyte-like cultures; assay type: cell-based, human; conditions: KOA donor osteocyte-like cultures, PPS 1 μg/mL + rhTNFα 1 ng/mL (FIG. 20)
# Text: FIG. 20. The effect of PPS treatment on basal and TNFα-induced MMP13 expression in human KOA osteocyte-like cultures. Real-time RT-PCR analysis of MMP13 mRNA relative to the expression of 18S rRNA. Data are means+SD of triplicate real-time RT-PCR reactions. A) KOA1-MMP13:18S mRNA expression; and B) KOA2-MMP13:185 mRNA expression.
# as §1, with “cells/mL. Cells were then seeded into either 12-well tissue culture trays or into 8-well chamber slides, at 1×10^5 and 2×10^4 cells/well, respectively.” for “cells/mL.”
# Following three days of pre-treatment of osteocyte-like cultures with PPS and a further 48 h treatment period, total RNA was isolated for the purposes of analysing gene expression using real-time RT-PCR. While the quality of the RNA isolated from all cultures appeared to be high, as adjudged by Nanodrop micro-spectrophotometry showing the ratio of absorbance at 260 nm/280 nm generally being between 1.9 and 2.0, there was a consistent inability to generate complementary DNA (cDNA) from any samples exposed to 5 or 50 μg/mL PPS, except in one or two samples. […]
substance,measurement,setting,value
Sodium Pentosan Polysulfate [PPS],effect of rhTNF on proNGF secretion,"proNGF; KOA and NOF cultures, rhTNFα 1 ng/mL 48 h after 3 days PPS pre-treatment, all PPS concentrations tested",strongly reversed
same,basal proNGF secretion,"proNGF; all donors' cells (KOA and NOF), all PPS concentrations tested (1, 5, 50 μg/mL)",strongly suppressed
same,rhTNFα-induced MMP13 mRNA expression,MMP13 mRNA,strongly inhibited
